Literature values in publication PMC4920590, “GPR142 Controls Tryptophan-Induced Insulin and Incretin Hormone Secretion to Improve Glucose Metabolism” (PLoS ONE, 2016).

System: Calcium-sensing receptor (CaSR)
Set-up: method as in PMID 24812056
Details: rats; cited from earlier work

For `C[C@@H](NCCCc1cccc(C(F)(F)F)c1)c1cccc2ccccc12` [Cinacalcet], the glucose is given as “lower glucose”.
